Literature values in patent US20080255091A1, “COMPOUNDS TO TREAT AMYLOIDOSIS AND PREVENT DEATH OF BETA-CELLS IN TYPE 2 DIABETES MELLITUS” (ASTRUM THERAPEUTICS PTY LTD., priority 2005, published 2008).

Test system: β-cell death induced by a fibrillogenic form of IAPP

Compound | prevention of β-cell death induced by a fibrillogenic form of IAPP
SNNFGA: the peptide SNNFGA, anti-amyloidosis agent from the literature (Islet amyloid polypeptide; UniProt P10997 53-58, looked up, fragment) | completely or partially prevented
Nc1c(/N=N/c2ccc(-c3ccc(/N=N/c4cc(S(=O)(=O)O)c5ccccc5c4N)cc3)cc2)cc(S(=O)(=O)O)c2ccccc12 [Congo Red] | completely or partially prevented
